Measurements taken from PubChem BioAssay (NCI).
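How tested: cells in 96-well plates exposed to compound for 48 hours at five concentrations. At the GI50, growth is halved. TGI: total growth inhibition.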

What was measured:
Assay in all cases: NCI tumour cell line growth inhibition, 48 h
RPMI-8226 leukemia = test system: RPMI-8226 leukemia
HCC-2998 colon = test system: HCC-2998 colon
COLO 205 colon = test system: COLO 205 colon
SF-268 CNS = test system: SF-268 CNS
OVCAR-4 ovarian = test system: OVCAR-4 ovarian
HL-60(TB) leukemia = test system: HL-60(TB) leukemia
UACC-62 melanoma = test system: UACC-62 melanoma
A549 NSCLC = test system: A549 NSCLC
A498 renal = test system: A498 renal
TK-10 renal = test system: TK-10 renal

Compound	GI50 (RPMI-8226 leukemia)	TGI (RPMI-8226 leukemia)	GI50 (HCC-2998 colon)	TGI (HCC-2998 colon)	GI50 (COLO 205 colon)	TGI (COLO 205 colon)	GI50 (SF-268 CNS)	TGI (SF-268 CNS)	GI50 (OVCAR-4 ovarian)	GI50 (HL-60(TB) leukemia)	TGI (HL-60(TB) leukemia)	GI50 (UACC-62 melanoma)	TGI (UACC-62 melanoma)	GI50 (A549 NSCLC)	TGI (A549 NSCLC)	GI50 (A498 renal)	TGI (A498 renal)	GI50 (TK-10 renal)	TGI (TK-10 renal)	TGI (OVCAR-4 ovarian)
COc1cccc(/C=N/NC(=O)c2ccccc2Nc2ccnc(C(F)(F)F)c2)c1O	0.156 µM	0.983 µM	0.29 µM	33.5 µM	0.353 µM	> 53.8 µM	0.488 µM	> 51.1 µM	0.0822 µM	0.215 µM	0.677 µM	0.378 µM	10.6 µM	0.87 µM	> 34.1 µM	5.11 µM	> 42.8 µM	0.392 µM	> 92.6 µM	
O=C(O)CCCCC(CCSCc1ccccc1)SCc1ccccc1 (stereo not given)	30.6 µM	96.7 µM	34.8 µM	> 100 µM	> 92.3 µM	> 100 µM	> 67.2 µM	> 100 µM	70.2 µM	46.9 µM	> 100 µM	21.5 µM	60.9 µM	43.5 µM	> 100 µM	> 38.9 µM	> 96.7 µM	> 73.4 µM	> 100 µM	> 100 µM
Cc1ccc2c(c1)C(=O)/C(=C/c1ncc([N+](=O)[O-])n1C)O2	1.6 µM	5.63 µM	2.29 µM	5.4 µM	1.99 µM	5.09 µM	1.93 µM	5.53 µM	2.15 µM	1.88 µM	9.71 µM	1.38 µM	3.84 µM	2.74 µM	9.29 µM	1.99 µM	6.63 µM	3.19 µM	11 µM	> 22.7 µM
O=C1c2c(c3c4ccccc4n(CCCCCCBr)c3c3[nH]c4ccccc4c23)C(=O)N1O	1.92 µM	5.57 µM	2.87 µM	12.5 µM	1.97 µM	4.7 µM	3.48 µM	18.3 µM	3.45 µM	2.08 µM	4.63 µM	1.69 µM	4.42 µM	3.31 µM	12.1 µM	2.89 µM	9.14 µM	3.13 µM	11.7 µM	23.4 µM
O=C(N/N=C/c1ccccc1O)c1cccc([N+](=O)[O-])c1		> 100 µM		> 100 µM		> 100 µM		> 100 µM			> 39.3 µM		> 70.8 µM		> 100 µM		> 100 µM		> 84.6 µM	> 100 µM
O=c1oc2ccc(F)cc2c(=O)n1-c1ccc(F)cc1F	2.22 µM	7.09 µM	3.9 µM	27.7 µM	3.56 µM	12.5 µM	3.34 µM	52.1 µM	3.02 µM	2.68 µM	7.81 µM	2.02 µM	7.52 µM	3.35 µM	> 100 µM	1.62 µM	3.91 µM	5.07 µM	36.9 µM	30.2 µM
Cc1nc2cccc([N+](=O)[O-])c2c(NCCCN(C)C)c1C		> 100 µM		> 54.3 µM		39.5 µM		> 100 µM			17.8 µM		> 100 µM		> 100 µM		> 54 µM		> 55.1 µM	> 100 µM
Cc1cc(I)cc(CNCCCN2CCSCC2)c1O	12.4 µM	30.8 µM	12.7 µM	26.9 µM	15 µM	30.8 µM	17.2 µM	36.4 µM	20.3 µM	15.8 µM	35.8 µM	12.7 µM	30.9 µM	18.7 µM	39.2 µM	13.7 µM	28.5 µM	14.2 µM	29.3 µM	46.7 µM
O=C1/C(=C/c2ccc(Cl)cc2Cl)N=C(c2ccccc2)N1Cc1ccco1	23.8 µM	92 µM	26.7 µM	76.1 µM			20.2 µM	49.5 µM	21.2 µM	18.3 µM	52.3 µM	18.1 µM	41.6 µM	27.1 µM	71 µM	22.3 µM	61 µM	22.1 µM	49.3 µM	50 µM
O=C1/C(=C/c2ccc(Br)cc2)C=C(c2ccccc2)N1CCc1ccccc1	9.44 µM	86.4 µM	7.52 µM	> 100 µM	3.26 µM	27.5 µM	2.27 µM	16.3 µM	0.554 µM	75.1 µM	> 100 µM			1.37 µM	11.9 µM	0.652 µM	5.44 µM	1.82 µM	6.06 µM	3.13 µM
COc1ccc2c(c1)c(-c1nc(-c3cn(C)c4ncccc34)cs1)cn2CCCN1CCCCC1	2.19 µM	4.64 µM	1.56 µM	3.06 µM			1.6 µM	3.21 µM	1.87 µM	1.81 µM	3.62 µM	1.76 µM	3.2 µM	1.87 µM	3.46 µM	2.4 µM	6.22 µM	1.64 µM	3.1 µM	4.64 µM
CC1=C(C(=O)Nc2ccc([N+](=O)[O-])cc2)C(c2ccc(N(C)C)cc2)C(C(=O)Nc2ccc([N+](=O)[O-])cc2)=C(C)N1		43.2 µM		25.8 µM		33.7 µM		96.1 µM			38.7 µM				> 100 µM		81.8 µM		92.2 µM	89.5 µM
COC(=O)CCCCN=Cc1c(O)c(O)c(C(C)C)c2cc(C)c(-c3c(C)cc4c(C(C)C)c(O)c(O)c(C=NCCCCC(=O)OC)c4c3O)c(O)c12	0.616 µM	20.3 µM	1.19 µM	> 32.5 µM	0.85 µM	2.44 µM	1.34 µM	> 32.5 µM	0.886 µM	1.13 µM	22.8 µM			0.979 µM	> 32.5 µM	1.79 µM	> 32.5 µM	1.05 µM	> 32.5 µM	> 32.5 µM
